Results taken from US20090082372A1, “Arylmethylene Substituted N-Acyl-Beta-Amino Alcohols” (priority 2007, published 2009).

These compounds were tested against T1, human FSH receptor (Homo sapiens, UniProt P23945) (assay: HTRF assay for measuring cAMP in cells (FSH antagonism)). Details: hFSHR clone 16 cells (CHO cells stably transfected with the human FSH receptor); in the presence of 1e-9 mol/l hFSH; 37° C. for 2 h; read-out: IC50 (FSH-antagonistic effect in the HTRF assay).
T1 construct: expressed in transfected cells; host or cells: CHO cells (hFSHR clone 16)
T1 sequence (P23945 18-695): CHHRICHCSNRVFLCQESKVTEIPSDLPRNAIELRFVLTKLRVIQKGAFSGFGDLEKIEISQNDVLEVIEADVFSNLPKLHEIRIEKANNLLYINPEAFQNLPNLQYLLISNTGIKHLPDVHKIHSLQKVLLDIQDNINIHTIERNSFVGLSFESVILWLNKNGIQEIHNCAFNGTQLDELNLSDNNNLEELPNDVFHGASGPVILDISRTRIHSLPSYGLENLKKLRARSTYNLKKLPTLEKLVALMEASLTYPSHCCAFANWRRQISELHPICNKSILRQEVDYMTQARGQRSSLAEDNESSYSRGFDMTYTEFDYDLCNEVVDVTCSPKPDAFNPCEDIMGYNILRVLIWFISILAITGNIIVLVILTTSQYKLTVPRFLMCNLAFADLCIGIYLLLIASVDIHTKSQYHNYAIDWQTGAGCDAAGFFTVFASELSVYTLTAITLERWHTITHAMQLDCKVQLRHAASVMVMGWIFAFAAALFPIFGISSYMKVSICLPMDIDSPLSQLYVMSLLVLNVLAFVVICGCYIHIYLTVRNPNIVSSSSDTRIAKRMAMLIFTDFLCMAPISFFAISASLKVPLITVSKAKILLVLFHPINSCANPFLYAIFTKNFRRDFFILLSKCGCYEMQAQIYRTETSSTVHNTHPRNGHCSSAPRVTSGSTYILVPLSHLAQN
Type: cell-based
Method: HTRF Assay for Measuring cAMP in Cells
The method is based on a competitive immunoassay between native cAMP, which has been produced by the cells, and cAMP which is labelled with XL665. The tracer binding was visualized by a monoclonal antibody, anti-cAMP labelled with cryptate [HTRF=homogeneous time-resolved fluorescence].
The specific signal is inversely proportional to the cAMP concentration of the samples employed. The 665 nm/620 nm fluorescence ratio was evaluated.
The following material was used: 96-well plates for the tissue culture, 96-well plates with black edge and black base (e.g. Fluotrac 600 from Greiner), 96-well plates for the substance dilutions of polypropylene and cAMP Femtomolar (4000 wells Kit, CIS Bio International #62AM1PEC).
The following reagents were used: BSA (bovine serum albumin) Fraction V protease-free, IBMX (3-isobutyl-1-methylxanthine), hFSH (human follicle stimulating hormone), Triton X-100 analytical grade, potassium fluoride analytical grade, G 418 (Geneticin) and Accutase.
Buffer 1 (washing and testing buffer) contained PBS, 1 mM CaCl2, 1 mM MgCl2, 0.2% glucose; 0.1% BSA, 1 mM IBMX. Buffer 2 (2× lysis buffer) contained 1% Triton X-100 in PBS (without CaCl2 and MgCl2). Buffer 3 (assay buffer) contained 50 mM potassium phosphate buffer (pH 7.0); 800 mM potassium fluoride; 0.2% BSA (always added fresh).
On day 1, the cells were seeded in 96-well plates (3×10^4 cells per well hFSHR clone 16 cells (CHO cells stably transfected with the human FSH receptor in 150 μl of medium).
The next day, test substance dilutions were made up. For this purpose, all the substances were diluted in ice-cold buffer 1 (with or without hFSH), and the substance dilutions were placed on ice until applied to the cells.
The cell supernatant was then aspirated off, and the cells were washed 2× with 200 μl of buffer 1. The cells were treated with 60 μl of the appropriate substance concentrations at 37° C. for 2 h. The cells were then lysed with 60 μl of buffer 2 (put onto the supernatant) (on a plate shaker at RT for 30 min).
The test conjugates (XL-665 and anti-cAMP cryptate) were diluted in buffer 3 in accordance with the manufacturers' information. The actual mixture for measurement was pipetted into a black 96-well plate (in each case 15 μl of the cell lysate diluted with 35 μl of buffer 1; firstly 25 μl of XL-665 conjugate were pipetted and, after 10 min, 25 μl of the anti-cAMP cryptate were added). This is followed by incubation at RT for 90 minutes. The measurement was carried out in a PheraStar (BMG).
Dose-effect curve (hFSH) for the human receptor: 1e-8, 3e-9, 1e-9, 3e-10, 1e-10, 3e-11, 1e-11, 3e-12 mol/l.
The test substances were employed in suitable dilutions in the absence (test for agonism) and in the presence of 1e-9 mol/l hFSH.
The values of the well ratio were averaged and then entered directly in SigmaPlot versus the concentrations. The maximum and minimum values were determined for each plate, and half the difference is to be regarded as IC50.

Compound	IC50 [µM]
CNC(=O)c1ccc(C#Cc2ccc(OC(F)(F)F)c(C(=O)N[C@@H](CO)Cc3n[nH]c4cccc(F)c34)c2)cc1 (stereo in doubt) [Example 16, N-[2-hydroxy-1-(4-fluoro-1H-indazol-3-ylmethyl)-ethyl]-2-trifluoromethoxy-5-[(4-methylaminocarbonyl-phenyl)-ethynyl]-benzamide]	9
CNC(=O)c1cc(F)cc(-c2ccc(OC(C)C)c(C(=O)NC(CO)Cc3c[nH]c4ncccc34)c2)c1 (centres unmarked) [Example 1, 5′-Fluoro-4-isopropoxy-biphenyl-3,3′-dicarboxylic acid 3-{[2-hydroxy-1-(1H-pyrrolo[2,3-b]pyridin-3-ylmethyl)-ethyl]-amide}3′-methylamide]	1.5
COc1ccccc1C#Cc1ccc(OC(C)C)c(C(=O)NC(CO)Cc2c[nH]c3ncccc23)c1 (centres unmarked) [Example 3, N-[1-Hydroxymethyl-2-(1H-pyrrolo[2,3-b]pyridin-3-yl)-ethyl]-2-isopropoxy-5-(2-methoxy-phenylethynyl)-benzamide]	4
CNC(=O)c1ccc(-c2cc3c(c(C(=O)NC(CO)Cc4c[nH]c5ncccc45)c2)OC(C)(C)C=C3)cc1Cl (centres unmarked) [Example 5, 6-(3-Chloro-4-methylcarbamoyl-phenyl)-2,2-dimethyl-2H-chromene-8-carboxylic acid [2-hydroxy-1-(1H-pyrrolo[2,3-b]pyridin-3-ylmethyl)-ethyl]-amide]	0.065
COc1ccc2nc(-c3cc(OC)c(OC)c(OC)c3)cc(C(=O)N[C@@H](CO)Cc3csc4ccccc34)c2c1 [Example 6, 6-Methoxy-2-(3,4,5-trimethoxy-phenyl)-quinoline-4-carboxylic acid ((R)-2-benzo[b]-thiophen-3-yl-1-hydroxy-methyl-ethyl)-amide]	6
COc1ccc2nc(-c3cc(OC)c(OC)c(OC)c3)cc(C(=O)N[C@@H](CO)Cc3ccc4ccccc4c3)c2c1 [Example 9, 6-Methoxy-2-(3,4,5-trimethoxy-phenyl)-quinoline-4-carboxylic acid ((R)-2-hydroxy-1-naphthalen-2-ylmethyl-ethyl)-amide]	8
COc1ccc2nc(-c3cc(OC)c(OC)c(OC)c3)cc(C(=O)NC(CO)Cc3ccc4ccccc4c3)c2c1 (centres unmarked) [Example 12, 6-Methoxy-2-(3,4,5-trimethoxy-phenyl)-quinoline-4-carboxylic acid (2-hydroxy-1-naphthalen-2-ylmethyl-ethyl)-amide]	10
CNC(=O)c1ccc(-c2ccc(OC(F)(F)F)c(C(=O)N[C@@H](CO)Cc3n[nH]c4c(F)cccc34)c2)cc1Cl [Example 14, 3′-Chloro-4-trifluoromethoxy-biphenyl-3,4′-dicarboxylic acid 3-{[2-hydroxy-1-(7-fluoro-1H-indazol-3-ylmethyl)-ethyl]-amide}4′-methylamide]	5
COc1ccc2nc(-c3ccc(OC)c(F)c3)nc(C(=O)NC(CO)Cc3c[nH]c4cccnc34)c2c1 (centres unmarked) [Example 21, 2-(3-Fluoro-4-methoxy-phenyl)-6-methoxy-quinazoline-4-carboxylic acid [2-hydroxy-1-(1H-pyrrolo[3,2-b]pyridin-3-ylmethyl)-ethyl]-amide]	5
COc1ccccc1C#Cc1ccc(OC(C)C)c(C(=O)NC(CO)Cc2c[nH]c3cccnc23)c1 (centres unmarked) [Example 22, N-[1-Hydroxymethyl-2-(1H-pyrrolo[3,2-b]pyridin-3-yl)-ethyl]-2-isopropoxy-5-(2-methoxy-phenylethynyl)-benzamide]	0.2
CNC(=O)c1cc(F)cc(-c2ccc(OC(C)C)c(C(=O)NC(CO)Cc3cc4ncccc4[nH]3)c2)c1 (centres unmarked) [Example 24, 5′-Fluoro-4-isopropoxy-biphenyl-3,3′-dicarboxylic acid 3-{[1-hydroxymethyl-2-(1H-pyrrolo[3,2-b]pyridin-2-yl)-ethyl]-amide}3′-methyl amide]	0.07
COc1ccc(-c2cc3c(c(C(=O)NC(CO)Cc4c[nH]c5cccnc45)c2)OCCCC3)cc1OC (centres unmarked) [Example 26, 7-(3,4-Dimethoxy-phenyl)-2,3,4,5-tetrahydro-benzo[b]oxepine-9-carboxylic acid [1-hydroxymethyl-2-(1H-pyrrolo[3,2-b]pyridin-3-yl)-ethyl]-amide]	1
CNC(=O)c1ccc(-c2ccc(OC(C)C)c(C(=O)NC(CO)Cc3c[nH]c4cnccc34)c2)cc1Cl (centres unmarked) [Example 39, 3′-Chloro-4-isopropoxy-biphenyl-3,4′-dicarboxylic acid 3-{[2-hydroxy-1-(1H-pyrrolo[2,3-c]pyridin-3-ylmethyl)-ethyl]-amide}4′-methylamide]	6.5
COc1ccccc1C#Cc1ccc(OC(C)C)c(C(=O)NC(CO)Cc2c[nH]c3cnccc23)c1 (centres unmarked) [Example 42, N-[2-Hydroxy-1-(1H-pyrrolo[2,3-c]pyridin-3-ylmethyl)-ethyl]-2-isopropoxy-5-(2-methoxy-phenylethynyl)-benzamide]	5
